Test [1] deals with Serine/threonine-protein kinase Nek7 (Homo sapiens) (UniProt Q8TDX7). Description: Percentage NEK7 activity remaining in the presence of 3uM inhibitor.
For test [2], the target named is T1, Dual specificity tyrosine-phosphorylation-regulated kinase 3 (Homo sapiens) (UniProt O43781).
T1 sequence (whole entry): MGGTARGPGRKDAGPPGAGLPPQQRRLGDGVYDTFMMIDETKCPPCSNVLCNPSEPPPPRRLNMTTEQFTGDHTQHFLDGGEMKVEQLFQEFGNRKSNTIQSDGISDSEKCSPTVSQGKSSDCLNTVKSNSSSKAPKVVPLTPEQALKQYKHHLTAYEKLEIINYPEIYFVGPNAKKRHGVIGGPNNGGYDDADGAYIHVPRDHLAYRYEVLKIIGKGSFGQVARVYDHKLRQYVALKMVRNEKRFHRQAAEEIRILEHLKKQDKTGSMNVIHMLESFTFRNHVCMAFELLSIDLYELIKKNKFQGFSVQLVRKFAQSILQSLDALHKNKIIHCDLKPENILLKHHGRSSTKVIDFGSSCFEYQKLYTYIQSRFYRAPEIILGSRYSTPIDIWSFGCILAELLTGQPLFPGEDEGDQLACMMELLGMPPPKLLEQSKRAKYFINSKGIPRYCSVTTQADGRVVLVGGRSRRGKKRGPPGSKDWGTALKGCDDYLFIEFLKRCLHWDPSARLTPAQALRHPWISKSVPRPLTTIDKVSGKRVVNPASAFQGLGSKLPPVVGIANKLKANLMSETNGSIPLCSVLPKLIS
Description: Percentage DYRK3 activity remaining in the presence of 3uM inhibitor.

Test [3] concerns the target Serine/threonine-protein kinase PAK 5 (Homo sapiens) (UniProt Q9P286). Kind of test: Percentage PAK5 activity remaining in the presence of 3uM inhibitor.
Test [4] addresses Maternal embryonic leucine zipper kinase (Homo sapiens) (UniProt Q14680). Kind of test: Percentage MELK activity remaining in the presence of 3uM inhibitor.
Test [5] addresses MAP kinase-activated protein kinase 3 (Homo sapiens) (UniProt Q16644). Description: Percentage MAPKAPK3 activity remaining in the presence of 3uM inhibitor.
Test [6] concerns the target T2, Cyclin-dependent kinase 2/cyclin A (Homo sapiens) (UniProt P24941+P20248+P78396). Description: Percentage CDK2-cyclinA activity remaining in the presence of 3uM inhibitor. It is filed as protein-complex assay.
In test [7] the target is Mitogen-activated protein kinase 8 (Homo sapiens, UniProt P45983). Kind of test: Percentage JNK1 activity remaining in the presence of 3uM inhibitor.
Chain of Mitogen-activated protein kinase 8 (P45983 whole entry): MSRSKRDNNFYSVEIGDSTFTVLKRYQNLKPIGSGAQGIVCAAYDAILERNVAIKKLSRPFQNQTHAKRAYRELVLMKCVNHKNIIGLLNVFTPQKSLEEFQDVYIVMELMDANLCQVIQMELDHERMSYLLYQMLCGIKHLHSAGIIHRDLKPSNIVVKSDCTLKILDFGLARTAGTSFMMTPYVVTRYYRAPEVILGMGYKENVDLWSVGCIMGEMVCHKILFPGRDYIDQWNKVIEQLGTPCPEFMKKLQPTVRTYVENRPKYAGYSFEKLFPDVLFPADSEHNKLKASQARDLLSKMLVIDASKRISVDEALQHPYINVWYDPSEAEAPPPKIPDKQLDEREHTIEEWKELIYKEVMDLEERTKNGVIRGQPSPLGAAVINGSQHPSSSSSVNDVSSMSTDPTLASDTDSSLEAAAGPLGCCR
The target of test [8] is Mitogen-activated protein kinase 11 (Homo sapiens) (UniProt Q15759). Description: Percentage p38beta activity remaining in the presence of 2uM inhibitor.
Chain of Mitogen-activated protein kinase 11 (Homo sapiens) (Q15759 whole entry): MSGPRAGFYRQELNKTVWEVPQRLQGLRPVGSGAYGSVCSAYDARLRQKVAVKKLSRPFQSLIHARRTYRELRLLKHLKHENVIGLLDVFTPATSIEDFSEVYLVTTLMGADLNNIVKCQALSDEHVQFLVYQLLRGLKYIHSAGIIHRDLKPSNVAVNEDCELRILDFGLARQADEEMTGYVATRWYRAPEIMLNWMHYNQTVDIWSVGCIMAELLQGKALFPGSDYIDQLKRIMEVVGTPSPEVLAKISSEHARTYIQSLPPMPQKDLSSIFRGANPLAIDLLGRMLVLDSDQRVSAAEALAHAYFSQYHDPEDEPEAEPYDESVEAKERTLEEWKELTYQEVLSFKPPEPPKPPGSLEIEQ
For test [9], the target named is Dual specificity tyrosine-phosphorylation-regulated kinase 1A (Homo sapiens) (UniProt Q13627). Kind of test: Percentage DYRK1A activity remaining in the presence of 2uM inhibitor. The settings on record: filed as antagonist.
Test [10] has as its target T2, Cyclin-dependent kinase 2/cyclin A (Homo sapiens). Description: Percentage CDK2-cyclinA activity remaining in the presence of 2uM inhibitor. It is filed as protein-complex assay.
The target in test [11] is Mitogen-activated protein kinase 3 (Homo sapiens) (UniProt P27361). Kind of test: Percentage ERK1 activity remaining in the presence of 2uM inhibitor.
Chain of Mitogen-activated protein kinase 3 (Homo sapiens) (P27361 whole entry): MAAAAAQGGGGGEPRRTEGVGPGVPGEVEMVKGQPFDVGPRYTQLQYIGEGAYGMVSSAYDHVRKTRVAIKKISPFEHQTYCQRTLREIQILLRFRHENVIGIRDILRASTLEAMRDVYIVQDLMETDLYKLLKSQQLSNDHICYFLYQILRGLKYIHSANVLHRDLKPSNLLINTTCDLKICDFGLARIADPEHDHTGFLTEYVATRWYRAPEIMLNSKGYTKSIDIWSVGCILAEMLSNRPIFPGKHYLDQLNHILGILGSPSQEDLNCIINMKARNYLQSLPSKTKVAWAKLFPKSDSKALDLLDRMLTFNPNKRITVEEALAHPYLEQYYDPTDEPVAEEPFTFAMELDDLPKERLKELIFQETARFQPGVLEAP
A further test is filed under the species Rattus norvegicus. Description: Percentage AMPK activity remaining in the presence of 2uM inhibitor.
The target of test [12] is T3, Serine/threonine-protein kinase D1 (Homo sapiens) (UniProt Q15139).
T3 sequence (whole entry): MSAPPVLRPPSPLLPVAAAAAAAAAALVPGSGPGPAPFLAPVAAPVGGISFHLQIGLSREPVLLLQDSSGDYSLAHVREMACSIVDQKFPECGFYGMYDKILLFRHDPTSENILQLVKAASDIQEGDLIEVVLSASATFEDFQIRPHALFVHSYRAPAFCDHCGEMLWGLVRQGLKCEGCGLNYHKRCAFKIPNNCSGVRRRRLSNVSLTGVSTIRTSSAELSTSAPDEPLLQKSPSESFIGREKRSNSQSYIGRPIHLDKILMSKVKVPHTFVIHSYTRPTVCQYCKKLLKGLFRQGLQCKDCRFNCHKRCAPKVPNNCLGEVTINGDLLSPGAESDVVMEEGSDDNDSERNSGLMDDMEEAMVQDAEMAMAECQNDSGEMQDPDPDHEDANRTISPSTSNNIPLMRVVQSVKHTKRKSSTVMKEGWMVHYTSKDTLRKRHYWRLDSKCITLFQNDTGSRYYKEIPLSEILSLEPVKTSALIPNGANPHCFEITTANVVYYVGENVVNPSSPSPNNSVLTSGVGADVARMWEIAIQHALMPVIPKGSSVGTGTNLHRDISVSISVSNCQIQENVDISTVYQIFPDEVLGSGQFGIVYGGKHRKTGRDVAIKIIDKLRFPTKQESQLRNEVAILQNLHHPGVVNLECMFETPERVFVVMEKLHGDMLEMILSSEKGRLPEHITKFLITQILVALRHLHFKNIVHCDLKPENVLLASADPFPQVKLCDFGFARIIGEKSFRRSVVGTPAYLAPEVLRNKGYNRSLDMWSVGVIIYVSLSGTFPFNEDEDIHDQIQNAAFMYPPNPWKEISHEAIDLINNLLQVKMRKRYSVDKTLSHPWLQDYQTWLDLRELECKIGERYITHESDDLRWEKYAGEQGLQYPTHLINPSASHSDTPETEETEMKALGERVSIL
Description: Percentage PKD1 activity remaining in the presence of 2uM inhibitor.

Test [13] addresses Serine/threonine-protein kinase pim-3 (Homo sapiens, UniProt Q86V86). Kind of test: Percentage PIM3 activity remaining in the presence of 2uM inhibitor. The settings on record: filed as antagonist.
The target in test [14] is SRSF protein kinase 1 (Homo sapiens) (UniProt Q96SB4). Description: Percentage SRPK1 activity remaining in the presence of 2uM inhibitor. The settings on record: filed as antagonist.
Chain of SRSF protein kinase 1 (Homo sapiens) (Q96SB4 whole entry): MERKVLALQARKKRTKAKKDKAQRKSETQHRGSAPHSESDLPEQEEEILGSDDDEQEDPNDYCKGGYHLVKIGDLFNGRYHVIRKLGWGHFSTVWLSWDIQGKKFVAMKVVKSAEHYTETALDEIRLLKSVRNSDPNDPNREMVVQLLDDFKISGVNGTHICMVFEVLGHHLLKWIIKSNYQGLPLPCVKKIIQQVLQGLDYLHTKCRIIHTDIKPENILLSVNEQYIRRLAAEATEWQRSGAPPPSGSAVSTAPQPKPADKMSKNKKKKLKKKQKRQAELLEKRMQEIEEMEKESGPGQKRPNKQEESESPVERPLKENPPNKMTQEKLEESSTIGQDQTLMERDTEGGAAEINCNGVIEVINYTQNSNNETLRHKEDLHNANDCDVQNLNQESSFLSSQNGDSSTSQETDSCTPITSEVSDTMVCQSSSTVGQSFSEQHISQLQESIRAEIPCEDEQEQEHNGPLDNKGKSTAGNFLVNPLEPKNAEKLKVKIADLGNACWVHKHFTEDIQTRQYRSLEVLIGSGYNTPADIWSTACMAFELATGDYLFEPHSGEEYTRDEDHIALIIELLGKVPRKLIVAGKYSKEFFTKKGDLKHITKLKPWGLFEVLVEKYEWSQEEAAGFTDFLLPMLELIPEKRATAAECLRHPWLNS
Test [15] has as its target RAC-beta serine/threonine-protein kinase (Homo sapiens) (UniProt P31751). Description: Percentage PKBbeta activity remaining in the presence of 2uM inhibitor.

Chain of RAC-beta serine/threonine-protein kinase (Homo sapiens) (P31751 whole entry): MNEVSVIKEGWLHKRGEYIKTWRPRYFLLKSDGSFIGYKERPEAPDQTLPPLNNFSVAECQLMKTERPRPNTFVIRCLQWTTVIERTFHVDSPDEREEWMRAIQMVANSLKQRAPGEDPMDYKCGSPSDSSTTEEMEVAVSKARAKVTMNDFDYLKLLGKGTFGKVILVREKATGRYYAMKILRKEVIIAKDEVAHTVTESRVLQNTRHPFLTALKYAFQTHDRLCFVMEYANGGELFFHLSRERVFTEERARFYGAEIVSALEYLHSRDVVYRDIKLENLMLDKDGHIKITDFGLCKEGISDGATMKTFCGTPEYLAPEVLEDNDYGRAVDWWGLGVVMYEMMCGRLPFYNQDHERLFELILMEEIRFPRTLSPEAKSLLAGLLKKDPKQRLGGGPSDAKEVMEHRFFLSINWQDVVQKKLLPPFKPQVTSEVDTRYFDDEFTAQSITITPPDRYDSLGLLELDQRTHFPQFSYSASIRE
Chain of Maternal embryonic leucine zipper kinase (Homo sapiens) (Q14680 whole entry, looked up): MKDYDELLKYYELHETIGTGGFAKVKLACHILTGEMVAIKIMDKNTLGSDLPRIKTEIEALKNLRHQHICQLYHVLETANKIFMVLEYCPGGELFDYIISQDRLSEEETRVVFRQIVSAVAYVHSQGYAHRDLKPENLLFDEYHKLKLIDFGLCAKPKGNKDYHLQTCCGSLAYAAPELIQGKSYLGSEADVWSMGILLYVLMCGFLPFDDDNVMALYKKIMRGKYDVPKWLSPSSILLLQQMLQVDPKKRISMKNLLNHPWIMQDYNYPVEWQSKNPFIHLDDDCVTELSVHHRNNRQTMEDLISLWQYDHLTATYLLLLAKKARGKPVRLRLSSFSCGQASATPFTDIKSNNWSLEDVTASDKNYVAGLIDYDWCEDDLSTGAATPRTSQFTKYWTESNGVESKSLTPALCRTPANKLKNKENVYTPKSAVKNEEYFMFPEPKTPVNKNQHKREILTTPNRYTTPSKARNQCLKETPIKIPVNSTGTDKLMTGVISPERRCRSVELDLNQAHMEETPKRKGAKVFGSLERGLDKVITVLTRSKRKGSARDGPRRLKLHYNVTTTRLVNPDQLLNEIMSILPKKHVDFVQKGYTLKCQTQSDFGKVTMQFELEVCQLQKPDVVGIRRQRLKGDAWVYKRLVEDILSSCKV
Chain of Serine/threonine-protein kinase Nek7 (Homo sapiens) (Q8TDX7 whole entry, looked up): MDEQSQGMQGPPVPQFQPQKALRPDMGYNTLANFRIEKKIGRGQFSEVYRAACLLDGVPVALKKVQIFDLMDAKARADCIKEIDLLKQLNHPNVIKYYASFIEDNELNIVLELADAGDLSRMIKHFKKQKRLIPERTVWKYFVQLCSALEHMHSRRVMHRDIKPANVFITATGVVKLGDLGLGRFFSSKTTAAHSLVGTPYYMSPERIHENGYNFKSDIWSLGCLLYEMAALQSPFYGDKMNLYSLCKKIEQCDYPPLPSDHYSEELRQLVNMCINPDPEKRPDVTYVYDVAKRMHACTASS
Chain of MAP kinase-activated protein kinase 3 (Homo sapiens) (Q16644 whole entry, looked up): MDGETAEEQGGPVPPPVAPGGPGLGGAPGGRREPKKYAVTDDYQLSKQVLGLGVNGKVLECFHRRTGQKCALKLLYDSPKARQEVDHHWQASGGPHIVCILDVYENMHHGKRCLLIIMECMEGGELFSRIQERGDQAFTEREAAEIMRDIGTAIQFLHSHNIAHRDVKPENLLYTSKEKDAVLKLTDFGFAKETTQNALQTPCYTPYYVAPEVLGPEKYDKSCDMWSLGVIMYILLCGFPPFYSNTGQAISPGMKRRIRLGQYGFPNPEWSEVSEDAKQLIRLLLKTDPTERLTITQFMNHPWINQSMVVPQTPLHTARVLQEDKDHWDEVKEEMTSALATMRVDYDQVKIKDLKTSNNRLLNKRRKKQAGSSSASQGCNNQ
Chain of Serine/threonine-protein kinase PAK 5 (Homo sapiens) (Q9P286 whole entry, looked up): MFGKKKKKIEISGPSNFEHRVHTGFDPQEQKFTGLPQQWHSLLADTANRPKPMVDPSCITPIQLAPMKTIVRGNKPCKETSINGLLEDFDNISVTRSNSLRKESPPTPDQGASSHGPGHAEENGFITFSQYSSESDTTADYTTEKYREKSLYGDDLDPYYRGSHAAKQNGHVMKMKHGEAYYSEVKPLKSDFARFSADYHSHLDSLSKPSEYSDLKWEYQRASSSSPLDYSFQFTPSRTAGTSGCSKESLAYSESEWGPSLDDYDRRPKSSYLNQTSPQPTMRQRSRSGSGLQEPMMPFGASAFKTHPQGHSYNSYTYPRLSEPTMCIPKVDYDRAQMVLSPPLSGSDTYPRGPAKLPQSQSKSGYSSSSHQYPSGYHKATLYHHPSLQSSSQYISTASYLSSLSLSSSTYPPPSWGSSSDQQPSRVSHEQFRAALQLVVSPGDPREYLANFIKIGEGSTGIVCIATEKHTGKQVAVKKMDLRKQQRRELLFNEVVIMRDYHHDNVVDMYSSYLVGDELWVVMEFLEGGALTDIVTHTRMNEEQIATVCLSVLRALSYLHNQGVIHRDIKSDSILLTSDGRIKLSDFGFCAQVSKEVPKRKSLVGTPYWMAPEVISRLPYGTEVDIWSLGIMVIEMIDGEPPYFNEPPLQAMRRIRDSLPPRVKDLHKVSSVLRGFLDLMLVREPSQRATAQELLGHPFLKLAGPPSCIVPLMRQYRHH

Take `Cc1ccc(-c2c(C(=O)CF)n(CCCO)c3ncnc(N)c23)cc1`: the Activity came out at 92% in test [1]; 68% in test [2]; 88% in test [3]; 65% in test [4]; 92% in [5]; 80% in test [6]. Further, the Activity in [7] came out at 81%.

Consider `Cn1cc(C2=C(c3ccc(Cl)cc3Cl)C(=O)NC2=O)c2ccccc21`, for which the Activity was 85% in [8]; 8% in test [9]; 52% in test [10]; 99% in [11]; 67% in the test filed under Rattus norvegicus; 100% in test [12]. For the same molecule, the Activity in test [13] is 29%; in [14] it was 16%; in [15] it was 96%.

The values above are taken from ChEMBL document CHEMBL1150976, “The selectivity of protein kinase inhibitors: a further update” (Biochem J, 2007).
